Reference: ChEMBL document CHEMBL5223094, “Recent advancements in chromone as a privileged scaffold towards the development of small molecules for neurodegenerative therapeutics” (RSC Med Chem, 2022)
One block for each compound: values may come before it.

Columns and labels:
[1] = target: T1, Amine oxidase [flavin-containing] A (Homo sapiens, UniProt P21397); experiment: Inhibition of MAO-A (unknown origin)
T1 sequence (P21397 whole entry): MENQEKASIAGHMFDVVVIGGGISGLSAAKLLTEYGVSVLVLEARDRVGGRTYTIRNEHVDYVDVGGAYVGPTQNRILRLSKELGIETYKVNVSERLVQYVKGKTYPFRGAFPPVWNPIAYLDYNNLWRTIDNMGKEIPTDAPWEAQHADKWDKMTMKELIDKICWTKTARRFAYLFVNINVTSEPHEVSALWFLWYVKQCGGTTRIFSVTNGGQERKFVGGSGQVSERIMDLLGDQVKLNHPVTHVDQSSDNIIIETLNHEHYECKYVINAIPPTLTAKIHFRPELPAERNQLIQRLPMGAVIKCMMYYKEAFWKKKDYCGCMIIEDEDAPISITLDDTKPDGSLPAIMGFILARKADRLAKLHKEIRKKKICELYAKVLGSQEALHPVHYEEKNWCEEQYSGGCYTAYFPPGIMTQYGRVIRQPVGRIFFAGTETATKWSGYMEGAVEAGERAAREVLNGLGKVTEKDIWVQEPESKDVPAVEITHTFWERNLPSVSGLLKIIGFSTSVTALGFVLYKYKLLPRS

[2] = Selectivity index, ratio of Ki for displacement of [3H](+)-pentazocine from human sigma 1 receptor expressed in human HEK293 cells to Ki for displacement of (+)-[3H]DTG from rat sigma 2 receptor; assay type: cell-based
[3] = target: Amyloid-beta precursor protein (Homo sapiens) (UniProt P05067); experiment: Inhibition of electric eel AChE-indued amyloid beta (1 to 42) (unknown origin) aggregation at 100 uM incubated for 24 hrs by ThT fluorometric assay
[4] = target: Amyloid-beta precursor protein (Homo sapiens) (UniProt P05067); experiment: Inhibition of self-induced amyloid beta (1 to 42) (unknown origin) aggregation at 10 uM incubated for 48 hrs by ThT fluorometric assay
[5] = target: Cholinesterase (Equus caballus, UniProt P81908); experiment: Inhibition of equine serum BuChE using butyrylthiocholine chloride as substrate preincubated for 15 mins followed by substrate addition by Ellman's method
[6] = target: Acetylcholinesterase (Electrophorus electricus, UniProt O42275); experiment: Inhibition of electric eel AChE using acetylthiocholine iodide as substrate preincubated for 15 mins followed by substrate addition by Ellman's method
[7] = target: T2, Amine oxidase [flavin-containing] B (Homo sapiens, UniProt P27338); experiment: Inhibition of recombinant human MAO-B using kynuramine as substrate preincubated for 10 mins followed by enzyme addition and measured after 20 mins by fluorescent microplate reader analysis
T2 sequence (P27338 whole entry): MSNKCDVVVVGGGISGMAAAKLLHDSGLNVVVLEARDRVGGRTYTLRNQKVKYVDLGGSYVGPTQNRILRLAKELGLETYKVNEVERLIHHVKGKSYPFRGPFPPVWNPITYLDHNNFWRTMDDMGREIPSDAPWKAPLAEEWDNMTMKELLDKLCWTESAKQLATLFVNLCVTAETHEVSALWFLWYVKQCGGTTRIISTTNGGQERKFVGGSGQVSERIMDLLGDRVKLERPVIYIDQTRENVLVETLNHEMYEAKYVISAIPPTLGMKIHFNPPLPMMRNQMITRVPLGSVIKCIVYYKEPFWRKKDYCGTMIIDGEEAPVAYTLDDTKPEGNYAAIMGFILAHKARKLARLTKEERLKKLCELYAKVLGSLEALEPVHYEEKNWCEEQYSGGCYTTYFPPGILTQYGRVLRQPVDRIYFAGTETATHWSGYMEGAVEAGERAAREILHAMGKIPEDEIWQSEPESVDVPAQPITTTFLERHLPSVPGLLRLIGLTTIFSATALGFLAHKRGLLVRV

[8] = species: Homo sapiens; experiment: Selectivity index, ratio of IC50 for inhibition of recombinant human MAO-B to IC50 for inhibition of recombinant human MAO-A
[9] = target: T2, Amine oxidase [flavin-containing] B; experiment: Inhibition of MAO-B (unknown origin)
[10] = species: Homo sapiens; experiment: Selectivity index, ratio of IC50 for inhibition of recombinant human MAO-A to IC50 for inhibition of recombinant human MAO-B
[11] = target: Beta-secretase 1 (Homo sapiens, UniProt P56817); experiment: Inhibition of recombinant human BACE-1 expressed in baculovirus using Rh-EVNLDAEFK-Quencher as substrate incubated for 60 mins by FRET assay
[12] = target: Acetylcholinesterase (Homo sapiens, UniProt P22303); experiment: Inhibition of recombinant human AChE using acetylthiocholine as substrate preincubated for 15 mins followed by substrate addition and measured after 5 mins by DTNB reagent based Ellman's method
[13] = target: T3, Prostaglandin G/H synthase 2 (Homo sapiens, UniProt P35354); experiment: Inhibition of COX2 (unknown origin) using arachidonic acid as substrate preincubated for 5 mins followed by substrate addition by microplate spectrophotometric analysis
T3 sequence (P35354 whole entry): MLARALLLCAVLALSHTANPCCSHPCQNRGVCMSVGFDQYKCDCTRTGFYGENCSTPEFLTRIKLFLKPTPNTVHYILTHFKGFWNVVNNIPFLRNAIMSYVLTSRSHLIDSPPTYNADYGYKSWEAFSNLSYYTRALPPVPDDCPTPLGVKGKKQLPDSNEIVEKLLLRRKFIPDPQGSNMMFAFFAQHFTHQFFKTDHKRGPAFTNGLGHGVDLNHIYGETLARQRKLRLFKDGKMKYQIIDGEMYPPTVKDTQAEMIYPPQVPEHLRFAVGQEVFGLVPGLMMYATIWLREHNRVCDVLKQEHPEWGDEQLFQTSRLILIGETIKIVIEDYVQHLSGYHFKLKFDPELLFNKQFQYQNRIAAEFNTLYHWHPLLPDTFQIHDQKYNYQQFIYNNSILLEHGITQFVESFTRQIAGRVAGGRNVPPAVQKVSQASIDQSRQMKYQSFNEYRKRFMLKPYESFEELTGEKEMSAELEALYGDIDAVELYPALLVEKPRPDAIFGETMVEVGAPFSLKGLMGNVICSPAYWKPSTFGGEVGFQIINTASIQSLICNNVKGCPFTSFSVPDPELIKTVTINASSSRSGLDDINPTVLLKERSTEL

[14] = target: T3, Prostaglandin G/H synthase 2; experiment: Inhibition of COX2 (unknown origin)
[15] = Inhibition of soybean LOX15 using arachidonic acid preincubated for 5 mins followed by substrate addition and measured after 5 mins by microplate spectrophotometric analysis; set-up: species or system Glycine max
[16] = target: T4, Polyunsaturated fatty acid 5-lipoxygenase (Homo sapiens, UniProt P09917); experiment: Inhibition of human LOX5 using arachidonic acid preincubated for 10 mins followed by substrate addition by microplate spectrophotometric analysis
T4 sequence (P09917 whole entry): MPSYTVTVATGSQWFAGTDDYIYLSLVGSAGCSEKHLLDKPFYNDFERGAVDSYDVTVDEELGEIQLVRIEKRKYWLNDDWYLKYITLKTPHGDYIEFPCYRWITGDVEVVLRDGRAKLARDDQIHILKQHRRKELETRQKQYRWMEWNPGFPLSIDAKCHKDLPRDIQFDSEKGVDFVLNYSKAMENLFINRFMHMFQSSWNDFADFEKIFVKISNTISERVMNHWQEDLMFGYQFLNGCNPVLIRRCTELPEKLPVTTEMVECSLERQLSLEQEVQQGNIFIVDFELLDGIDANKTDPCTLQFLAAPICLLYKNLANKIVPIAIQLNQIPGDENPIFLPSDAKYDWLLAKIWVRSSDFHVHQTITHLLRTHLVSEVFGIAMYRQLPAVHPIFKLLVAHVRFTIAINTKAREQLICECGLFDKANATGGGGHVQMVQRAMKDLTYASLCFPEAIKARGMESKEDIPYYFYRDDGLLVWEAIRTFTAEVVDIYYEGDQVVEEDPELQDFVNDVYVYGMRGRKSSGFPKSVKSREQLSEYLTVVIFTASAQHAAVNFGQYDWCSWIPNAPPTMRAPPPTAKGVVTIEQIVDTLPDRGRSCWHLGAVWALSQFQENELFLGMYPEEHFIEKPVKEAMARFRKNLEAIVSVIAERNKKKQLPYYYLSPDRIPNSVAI

[17] = target: T4, Polyunsaturated fatty acid 5-lipoxygenase; experiment: Inhibition of LOX5 (unknown origin)
[18] = target: Cholinesterase (Homo sapiens, UniProt P06276); experiment: Inhibition of recombinant human BuChE using butyrylthiocholine as substrate preincubated for 15 mins followed by substrate addition and measured after 5 mins by Ellman's method
[19] = target: Amyloid-beta precursor protein (Homo sapiens) (UniProt P05067); experiment: Inhibition of amyloid beta (1 to 42) (unknown origin) aggregation at 50 uM incubated for 24 hrs by ThT fluorometric assay

Chain of Amyloid-beta precursor protein (Homo sapiens) (P05067 whole entry): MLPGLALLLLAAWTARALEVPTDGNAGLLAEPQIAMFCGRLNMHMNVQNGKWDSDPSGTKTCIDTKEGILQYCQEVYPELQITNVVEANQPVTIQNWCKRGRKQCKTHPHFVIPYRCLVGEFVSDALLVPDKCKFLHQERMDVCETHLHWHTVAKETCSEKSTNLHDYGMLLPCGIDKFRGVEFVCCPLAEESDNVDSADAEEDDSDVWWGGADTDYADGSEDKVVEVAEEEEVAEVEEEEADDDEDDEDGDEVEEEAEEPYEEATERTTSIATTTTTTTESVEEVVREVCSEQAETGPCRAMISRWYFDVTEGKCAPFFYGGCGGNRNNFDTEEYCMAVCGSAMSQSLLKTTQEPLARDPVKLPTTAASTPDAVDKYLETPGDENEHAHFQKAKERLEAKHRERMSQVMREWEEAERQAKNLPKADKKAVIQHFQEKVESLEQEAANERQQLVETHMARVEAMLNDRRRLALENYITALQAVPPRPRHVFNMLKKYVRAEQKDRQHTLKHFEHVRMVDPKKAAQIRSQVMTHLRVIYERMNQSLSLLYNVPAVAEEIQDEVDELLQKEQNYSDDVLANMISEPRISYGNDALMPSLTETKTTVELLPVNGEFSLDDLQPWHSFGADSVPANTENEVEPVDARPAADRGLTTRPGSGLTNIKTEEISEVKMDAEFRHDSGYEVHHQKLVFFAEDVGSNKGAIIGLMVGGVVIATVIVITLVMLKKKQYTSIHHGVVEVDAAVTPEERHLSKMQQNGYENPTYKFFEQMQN
Chain of Beta-secretase 1 (P56817 whole entry): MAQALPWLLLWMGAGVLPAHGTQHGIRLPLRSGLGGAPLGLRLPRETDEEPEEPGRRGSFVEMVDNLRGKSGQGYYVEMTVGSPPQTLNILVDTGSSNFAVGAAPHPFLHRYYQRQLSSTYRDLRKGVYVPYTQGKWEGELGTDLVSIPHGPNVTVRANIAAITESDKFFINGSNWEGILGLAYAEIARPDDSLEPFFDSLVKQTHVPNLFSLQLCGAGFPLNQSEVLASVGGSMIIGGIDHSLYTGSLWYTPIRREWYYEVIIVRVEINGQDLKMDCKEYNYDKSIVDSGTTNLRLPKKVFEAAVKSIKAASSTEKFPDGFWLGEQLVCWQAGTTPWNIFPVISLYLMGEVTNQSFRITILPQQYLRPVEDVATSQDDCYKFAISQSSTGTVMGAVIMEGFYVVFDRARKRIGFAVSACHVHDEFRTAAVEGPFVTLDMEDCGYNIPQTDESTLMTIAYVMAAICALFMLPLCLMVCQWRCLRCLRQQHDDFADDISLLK
Chain of Cholinesterase (Homo sapiens, UniProt P06276) (P06276 whole entry): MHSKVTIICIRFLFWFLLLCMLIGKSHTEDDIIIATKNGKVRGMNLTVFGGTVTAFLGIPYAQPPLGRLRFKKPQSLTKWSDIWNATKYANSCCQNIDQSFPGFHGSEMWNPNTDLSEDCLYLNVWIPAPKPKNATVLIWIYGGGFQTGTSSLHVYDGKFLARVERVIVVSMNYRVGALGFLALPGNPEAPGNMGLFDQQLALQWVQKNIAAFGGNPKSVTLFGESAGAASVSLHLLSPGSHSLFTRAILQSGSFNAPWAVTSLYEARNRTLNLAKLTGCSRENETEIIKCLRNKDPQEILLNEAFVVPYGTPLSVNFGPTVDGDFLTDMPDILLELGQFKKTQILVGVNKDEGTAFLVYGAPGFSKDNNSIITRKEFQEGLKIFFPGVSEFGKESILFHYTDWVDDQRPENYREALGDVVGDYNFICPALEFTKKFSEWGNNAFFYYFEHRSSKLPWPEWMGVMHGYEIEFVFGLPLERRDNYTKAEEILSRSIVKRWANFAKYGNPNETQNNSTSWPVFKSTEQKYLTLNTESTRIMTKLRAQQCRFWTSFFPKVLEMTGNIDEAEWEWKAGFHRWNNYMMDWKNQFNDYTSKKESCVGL
Chain of Cholinesterase (Equus caballus, UniProt P81908) (P81908 whole entry): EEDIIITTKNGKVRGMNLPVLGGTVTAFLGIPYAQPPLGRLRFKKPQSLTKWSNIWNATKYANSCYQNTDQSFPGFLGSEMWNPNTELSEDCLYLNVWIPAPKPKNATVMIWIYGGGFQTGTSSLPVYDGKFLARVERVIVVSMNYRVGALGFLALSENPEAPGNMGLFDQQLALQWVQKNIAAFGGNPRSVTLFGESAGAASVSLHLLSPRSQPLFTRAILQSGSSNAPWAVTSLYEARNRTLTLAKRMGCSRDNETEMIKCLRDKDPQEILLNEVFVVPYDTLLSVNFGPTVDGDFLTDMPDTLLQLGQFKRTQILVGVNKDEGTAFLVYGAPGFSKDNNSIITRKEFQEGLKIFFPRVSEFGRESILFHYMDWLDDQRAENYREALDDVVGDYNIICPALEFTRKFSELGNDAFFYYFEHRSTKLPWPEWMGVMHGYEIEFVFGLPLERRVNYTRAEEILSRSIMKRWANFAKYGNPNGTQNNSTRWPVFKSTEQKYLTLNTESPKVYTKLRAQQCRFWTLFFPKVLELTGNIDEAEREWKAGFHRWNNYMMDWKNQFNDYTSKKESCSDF
Chain of Acetylcholinesterase (Homo sapiens, UniProt P22303) (P22303 whole entry): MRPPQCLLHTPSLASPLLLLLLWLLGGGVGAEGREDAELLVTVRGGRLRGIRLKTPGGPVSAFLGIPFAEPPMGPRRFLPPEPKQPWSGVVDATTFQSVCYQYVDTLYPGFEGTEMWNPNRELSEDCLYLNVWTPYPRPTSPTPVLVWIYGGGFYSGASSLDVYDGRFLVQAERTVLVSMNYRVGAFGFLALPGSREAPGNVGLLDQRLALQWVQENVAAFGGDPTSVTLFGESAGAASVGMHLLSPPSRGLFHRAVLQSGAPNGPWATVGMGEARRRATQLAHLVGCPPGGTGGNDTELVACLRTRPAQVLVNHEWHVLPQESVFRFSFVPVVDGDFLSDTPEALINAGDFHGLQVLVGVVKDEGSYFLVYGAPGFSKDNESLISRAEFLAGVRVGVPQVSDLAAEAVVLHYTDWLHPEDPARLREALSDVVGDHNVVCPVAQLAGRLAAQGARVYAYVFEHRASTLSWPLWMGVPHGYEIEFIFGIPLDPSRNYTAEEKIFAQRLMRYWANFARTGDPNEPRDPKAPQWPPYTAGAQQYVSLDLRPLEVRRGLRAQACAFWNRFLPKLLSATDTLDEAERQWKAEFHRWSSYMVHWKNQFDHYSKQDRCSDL
Chain of Acetylcholinesterase (Electrophorus electricus, UniProt O42275) (O42275 whole entry): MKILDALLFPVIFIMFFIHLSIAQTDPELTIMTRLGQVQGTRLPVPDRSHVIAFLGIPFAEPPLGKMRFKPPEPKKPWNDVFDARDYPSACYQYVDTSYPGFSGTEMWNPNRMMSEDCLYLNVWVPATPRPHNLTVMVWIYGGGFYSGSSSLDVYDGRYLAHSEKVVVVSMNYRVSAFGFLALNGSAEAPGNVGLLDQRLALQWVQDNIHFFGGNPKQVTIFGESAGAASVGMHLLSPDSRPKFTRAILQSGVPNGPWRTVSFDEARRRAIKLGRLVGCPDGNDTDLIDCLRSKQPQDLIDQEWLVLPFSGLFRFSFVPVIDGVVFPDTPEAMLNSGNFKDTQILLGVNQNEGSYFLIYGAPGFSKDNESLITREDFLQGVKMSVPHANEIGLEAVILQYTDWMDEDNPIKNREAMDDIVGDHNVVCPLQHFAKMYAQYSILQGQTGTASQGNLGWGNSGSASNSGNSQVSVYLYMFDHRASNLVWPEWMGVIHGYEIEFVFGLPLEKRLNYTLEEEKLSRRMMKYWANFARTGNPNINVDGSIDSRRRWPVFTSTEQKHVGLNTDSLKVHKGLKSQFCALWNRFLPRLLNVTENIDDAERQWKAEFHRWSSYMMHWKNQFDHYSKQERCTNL

- IC50 [1]: 23 nM
Structure (SMILES): COc1ccc2oc(-n3cncn3)cc(=O)c2c1

Structure (SMILES): O=c1ccoc2ccc(OCCCN3CCCCCC3)cc12
- Ratio Ki [2]: 28

Structure (SMILES): O=c1ccoc2ccc(OCCCCCN3CCOCC3)cc12
- Ratio Ki [2]: 130

Structure (SMILES): O=c1cc(-c2ccc(Cl)cc2)oc2cc(OCCCC[n+]3ccccc3)ccc12
- inhibition [3]: 22%
- inhibition [4]: 28%
- IC50 [5]: 2000 nM
- IC50 [6]: 6 nM

- IC50 [7]: 150 nM
- Ratio IC50 [8]: > 670
Structure (SMILES): COc1ccc2ccn(-c3cc(=O)c4ccccc4o3)c2c1

- IC50 [9]: 15 nM
- IC50 [7]: 15 nM
- Ratio IC50 [8]: > 6700
Structure (SMILES): COc1ccc2c(=O)c(N3CCN(c4ccccc4)CC3)coc2c1

- IC50 [7]: 150 nM
- Ratio IC50 [8]: > 670
Structure (SMILES): COc1ccc2c(=O)cc(-n3ccc4ccccc43)oc2c1

- Ratio IC50 [10]: 1500
Structure (SMILES): COc1ccc2oc(/C=C/c3ccc(Cl)cc3)cc(=O)c2c1

Structure (SMILES): O=c1c(/C=N/Nc2ccc(C(F)(F)F)cc2)coc2c1ccc1oc(-c3ccc(Cl)cc3)cc12
- IC50 [11]: 14 µM
- IC50 [12]: 5 µM
- IC50 [13]: 10 µM
- IC50 [14]: 10.4 µM
- IC50 [15]: 15 µM
- IC50 [16]: 29 µM
- IC50 [17]: 28.5 µM
- IC50 [18]: 10 µM

- inhibition [19]: 74%
Structure (SMILES): COc1cccc2oc3c(c(=O)c12)[C@H](O)CC3
